Series [1] is described as follows: Chemical stability of compound in buffer at pH 7.4 assessed as compound remaining at 10 mg/ml after 1 day. The class given is physicochemical. Particulars: read-out: Stability.
A short description of series [2]: Chemical stability of compound in buffer at pH 7.4 assessed as compound remaining at 10 mg/ml after 2 days. Particulars: read-out: Stability. The class given is physicochemical.
Series [3] has as its target T1, Cholecystokinin receptor type A (Homo sapiens, UniProt P32238).
T1 sequence (P32238 whole entry): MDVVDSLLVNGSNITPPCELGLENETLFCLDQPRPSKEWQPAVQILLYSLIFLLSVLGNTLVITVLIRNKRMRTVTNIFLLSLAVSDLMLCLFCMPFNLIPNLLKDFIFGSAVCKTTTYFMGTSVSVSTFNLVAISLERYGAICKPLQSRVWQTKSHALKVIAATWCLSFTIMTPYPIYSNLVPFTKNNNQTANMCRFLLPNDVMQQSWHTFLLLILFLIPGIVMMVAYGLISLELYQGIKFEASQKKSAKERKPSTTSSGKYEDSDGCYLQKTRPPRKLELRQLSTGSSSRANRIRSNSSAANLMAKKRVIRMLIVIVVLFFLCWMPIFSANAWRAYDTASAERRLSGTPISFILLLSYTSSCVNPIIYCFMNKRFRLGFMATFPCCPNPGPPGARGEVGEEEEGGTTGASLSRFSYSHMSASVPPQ
The series can be described thus: Antagonist activity at human wild-type CCKA receptor expressed in CHO-K1 cells assessed as CCK8-induced calcium by FDSS assay. Format: functional, cell-based.

Series [4] has as its target T2, Muscarinic acetylcholine receptor M1 (Homo sapiens, UniProt P11229).
T2 sequence (P11229 whole entry): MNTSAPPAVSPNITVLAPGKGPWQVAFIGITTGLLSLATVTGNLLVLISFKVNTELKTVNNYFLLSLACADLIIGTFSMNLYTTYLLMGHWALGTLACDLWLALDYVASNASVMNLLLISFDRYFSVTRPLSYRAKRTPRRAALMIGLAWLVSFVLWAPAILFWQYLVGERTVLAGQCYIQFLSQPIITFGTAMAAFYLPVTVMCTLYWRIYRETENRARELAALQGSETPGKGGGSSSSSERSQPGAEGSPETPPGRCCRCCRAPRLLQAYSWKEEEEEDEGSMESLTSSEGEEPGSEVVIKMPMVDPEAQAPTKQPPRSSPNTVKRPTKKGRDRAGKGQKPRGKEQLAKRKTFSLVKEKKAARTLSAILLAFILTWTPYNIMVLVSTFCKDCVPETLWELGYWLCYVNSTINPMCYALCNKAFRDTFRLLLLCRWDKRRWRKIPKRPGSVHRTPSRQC
The series can be described thus: Antagonist activity at human wild-type M1 receptor expressed in CHO-K1 cells assessed as acetylcholine-induced calcium by FDSS assay. The class given is functional, cell-based.

In the next series the target is T3, Adenosine receptor A3 (Homo sapiens, UniProt P0DMS8).
T3 sequence (P0DMS8 whole entry): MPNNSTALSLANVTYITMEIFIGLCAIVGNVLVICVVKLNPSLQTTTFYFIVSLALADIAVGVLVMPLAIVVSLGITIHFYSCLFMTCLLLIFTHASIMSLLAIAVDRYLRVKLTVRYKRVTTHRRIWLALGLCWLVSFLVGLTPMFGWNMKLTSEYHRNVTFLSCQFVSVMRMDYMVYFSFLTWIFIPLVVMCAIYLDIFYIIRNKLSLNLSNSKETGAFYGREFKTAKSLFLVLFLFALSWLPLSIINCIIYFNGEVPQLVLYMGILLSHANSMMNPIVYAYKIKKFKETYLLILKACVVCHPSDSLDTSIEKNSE
Description: Agonist activity at human wild-type A3 receptor expressed in CHO-K1 cells assessed as cAMP level by HTRF assay. Format: functional, cell-based.

For series [5], the target named is T4, Alpha-2A adrenergic receptor (Homo sapiens, UniProt P08913).
T4 sequence (P08913 whole entry): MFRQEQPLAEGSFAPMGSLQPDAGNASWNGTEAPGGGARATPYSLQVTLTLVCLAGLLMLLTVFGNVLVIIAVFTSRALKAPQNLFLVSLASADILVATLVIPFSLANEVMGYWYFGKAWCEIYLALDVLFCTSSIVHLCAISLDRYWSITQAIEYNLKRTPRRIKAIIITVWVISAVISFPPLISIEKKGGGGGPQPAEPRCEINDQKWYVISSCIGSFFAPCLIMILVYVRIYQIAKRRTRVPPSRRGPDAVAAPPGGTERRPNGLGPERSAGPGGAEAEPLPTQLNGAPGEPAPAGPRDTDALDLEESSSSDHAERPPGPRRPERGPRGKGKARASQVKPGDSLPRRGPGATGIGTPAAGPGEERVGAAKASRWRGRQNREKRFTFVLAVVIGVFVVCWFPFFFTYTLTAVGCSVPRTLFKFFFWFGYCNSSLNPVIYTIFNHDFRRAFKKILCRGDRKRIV
Description: Agonist activity at human wild-type alpha 2A receptor expressed in CHO-K1 cells assessed as cAMP level by HTRF assay. Format: functional, cell-based. (In general: Cyclic AMP is a second messenger, typically raised through Gs and lowered through Gi signalling.)

The target of series [6] is T1, Cholecystokinin receptor type A. Description: Agonist activity at human wild-type CCKA receptor expressed in CHO-K1 cells assessed as calcium level by FDSS assay. The class given is functional, cell-based.
The target in series [7] is Kappa-type opioid receptor (Homo sapiens, UniProt P41145). Description: Agonist activity at human wild-type opioid-kappa 1 receptor expressed in CHO-K1 cells assessed as cAMP level by HTRF assay. The class given is functional, cell-based.
Kappa-type opioid receptor, sequence (P41145 whole entry): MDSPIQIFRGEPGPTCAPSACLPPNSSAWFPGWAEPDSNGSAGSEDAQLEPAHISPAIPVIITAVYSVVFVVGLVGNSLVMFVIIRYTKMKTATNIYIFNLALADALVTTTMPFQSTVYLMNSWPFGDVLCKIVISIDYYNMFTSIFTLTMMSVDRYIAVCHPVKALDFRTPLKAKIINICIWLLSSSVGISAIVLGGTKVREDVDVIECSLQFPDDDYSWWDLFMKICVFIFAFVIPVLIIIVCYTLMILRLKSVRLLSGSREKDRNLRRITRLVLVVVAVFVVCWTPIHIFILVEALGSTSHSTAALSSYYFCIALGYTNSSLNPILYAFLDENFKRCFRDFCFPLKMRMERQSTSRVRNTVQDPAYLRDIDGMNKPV
A further series deals with Mu-type opioid receptor (Homo sapiens, UniProt P35372). Description: Agonist activity at human wild-type opioid-mu receptor expressed in CHO-K1 cells assessed as cAMP level by HTRF assay. The class given is functional, cell-based.
Mu-type opioid receptor, sequence (P35372 whole entry): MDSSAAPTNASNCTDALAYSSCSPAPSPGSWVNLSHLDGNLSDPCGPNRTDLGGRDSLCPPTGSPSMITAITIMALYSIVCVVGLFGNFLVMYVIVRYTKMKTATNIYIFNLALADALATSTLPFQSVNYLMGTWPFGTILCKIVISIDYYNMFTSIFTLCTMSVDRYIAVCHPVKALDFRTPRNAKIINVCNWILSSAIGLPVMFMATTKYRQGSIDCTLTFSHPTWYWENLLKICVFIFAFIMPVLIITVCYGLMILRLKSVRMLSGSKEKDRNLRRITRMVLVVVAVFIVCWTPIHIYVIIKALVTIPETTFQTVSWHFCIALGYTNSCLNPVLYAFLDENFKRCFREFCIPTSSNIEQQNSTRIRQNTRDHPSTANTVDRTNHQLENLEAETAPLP
The target in the next series is Cytochrome P450 2D6 (Homo sapiens, UniProt P10635). Description: Inhibition of human CYP2D6 by LC-MS analysis. Format: ADME.
Cytochrome P450 2D6, sequence (P10635 whole entry): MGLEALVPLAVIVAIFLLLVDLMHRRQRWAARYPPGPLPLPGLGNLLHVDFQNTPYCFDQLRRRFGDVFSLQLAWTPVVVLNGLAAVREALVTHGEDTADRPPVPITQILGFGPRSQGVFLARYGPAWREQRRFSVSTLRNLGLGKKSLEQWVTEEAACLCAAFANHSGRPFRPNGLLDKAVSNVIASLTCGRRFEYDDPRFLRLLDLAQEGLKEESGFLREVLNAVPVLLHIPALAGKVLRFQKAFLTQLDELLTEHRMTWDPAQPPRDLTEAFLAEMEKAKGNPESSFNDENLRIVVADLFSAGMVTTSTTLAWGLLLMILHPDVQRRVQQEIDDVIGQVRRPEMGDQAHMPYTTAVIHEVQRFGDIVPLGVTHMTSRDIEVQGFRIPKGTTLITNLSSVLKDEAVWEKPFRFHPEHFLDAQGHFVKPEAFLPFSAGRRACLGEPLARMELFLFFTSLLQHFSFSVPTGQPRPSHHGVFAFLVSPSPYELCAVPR
For a further series, the target named is T5, Cytochrome P450 1A2 (Homo sapiens, UniProt P05177).
T5 sequence (P05177 whole entry): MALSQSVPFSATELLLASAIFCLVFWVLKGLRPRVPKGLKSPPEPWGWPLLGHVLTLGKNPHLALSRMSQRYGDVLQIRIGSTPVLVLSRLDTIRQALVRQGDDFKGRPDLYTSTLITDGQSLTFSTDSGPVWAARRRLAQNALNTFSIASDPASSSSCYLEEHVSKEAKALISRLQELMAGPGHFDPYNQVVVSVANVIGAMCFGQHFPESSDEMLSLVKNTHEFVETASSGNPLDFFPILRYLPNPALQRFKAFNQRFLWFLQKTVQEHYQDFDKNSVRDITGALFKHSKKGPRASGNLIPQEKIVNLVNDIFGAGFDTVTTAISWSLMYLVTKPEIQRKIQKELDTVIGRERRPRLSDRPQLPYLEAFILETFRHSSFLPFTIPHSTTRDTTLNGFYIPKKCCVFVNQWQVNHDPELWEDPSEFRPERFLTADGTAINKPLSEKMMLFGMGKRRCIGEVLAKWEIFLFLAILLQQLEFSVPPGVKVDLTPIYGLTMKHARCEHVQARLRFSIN
The series can be described thus: Inhibition of human CYP1A2 by LC-MS analysis. The class given is ADME.

Series [8] is described as follows: Fraction unbound in rat brain at 5 uM after 5 hrs by LC-MS/MS analysis. Format: ADME, tissue-based.
The nature of series [9]: Fraction unbound in human plasma at 5 uM after 4.5 hrs by LC-MS/MS analysis. Format: ADME, cell-free.
The nature of series [10]: Cmax in Swiss mouse brain at 5 mg/kg, sc. Details: dose 5 mg/kg, route subcutaneous. Format: ADME, organism-based.

As usually defined, the IC50 is the concentration needed to halve the response being measured. As usually defined, the EC50 is the midpoint of the concentration-response curve. By fraction unbound is commonly meant the share of the substance not bound to proteins or other matrix. Higher therefore signals much free substance. The Cmax is the highest concentration seen after dosing.

Consider `CB1C=Cc2c(cccc2OCC(O)CN(C)C)N1` (stereo not drawn), for which the remaining at 24 h, 10 mg/ml in [1] worked out at 96%. Also, the remaining at 48 h, 10 mg/ml in series [2] came to 96%. Further, the IC50 in series [3] is over 5.01 µM; in [4], over 5.01 µM; at Cytochrome P450 2D6, 2.51 µM; against Cytochrome P450 1A2, over 10 µM. The EC50 (on Adenosine receptor A3; in series [5]; in series [6]; in series [7]; on Mu-type opioid receptor) was over 5.01 µM each time. Besides, the fraction unbound at 5 h, 5 µM in [8] was 0.019. The molecule also displayed a fraction unbound at 4.5 h, 5 µM in series [9] of 0.367. The same molecule gave a Cmax in [10] of 62 µM.
Take `CB1C=Cc2cccc(OCC(O)CNC(C)C)c2N1` (stereo not drawn): in [1], the remaining at 24 h, 10 mg/ml was 93%. In series [2], the remaining at 48 h, 10 mg/ml came to 91%. For the same molecule, the IC50 was over 5.01 µM in series [3], over 5.01 µM in series [4], 0.398 µM at Cytochrome P450 2D6 and 3.16 µM at Cytochrome P450 1A2. Moreover, the EC50 (at Adenosine receptor A3; in [5]; in [6]; in series [7]; on Mu-type opioid receptor) was over 5.01 µM each time. Further, in series [8], the free fraction (fraction unbound) at 5 h, 5 µM is 0.0055. The molecule further came in with a fraction unbound at 4.5 h, 5 µM in series [9] of 0.179. Besides, in series [10], the highest level (Cmax) was 7 µM.

The record behind these values is ChEMBL document CHEMBL3734721 (J Med Chem, 2015).
